Experiments:
Format in all cases: physicochemical
[1] = Mechanical stability over time of the particles (particle size on storage)
Procedure: (§1) The size and the mechanical stability over time of the particles obtained in the solution were measured after filtration by dynamic light diffraction (High Performance Particle Sizer, Malvern). The nature of the particles obtained was studied by transmission electron microscopy after negative staining of the sample or after freeze-fracture (FIG. 4).
(§2) The size and the mechanical stability over time of the particles obtained in the solution were measured after dynamic light diffraction filtration (High Performance Particle Sizer, Malvern). The nature of the particles obtained was studied by transmission electron microscopy after negative staining of the sample or after freeze-fracture. The critical aggregation concentration of these surfactants was determined by tensiometry or by spectrofluorimetry using the fluorescent label method. Furthermore, the Wilhelmy tensiometry technique made it possible to determine the maximum surface tensions and the area of the polar head at the water-air interface (FIG. 8). […] In order to cause this value to decrease or increase, it is necessary to, respectively, increase or decrease the length of the hydrocarbon-based chains. The phase transition temperature of these surfactants was determined by polarization spectrofluorimetry and by light scattering (FIG. 9).

[2] = Release kinetics of encapsulated carboxyfluorescein by spectrofluorimetry; conditions: compared with encapsulation in egg yolk phosphatidylcholine; 25° C., Tris buffer pH 7.4, 4 h
Procedure: The encapsulation capacity of the various compounds is determined by spectrofluorimetry using a fluorescent probe: 5 (6)-carboxyfluorescein. The release of this fluorescent label from the vesicles prepared according to standardized methods is measured.
This study requires the preparation of a Tris buffer (15 mM and 150 mM NaCl) at pH 7.4, and also of a 120 mM carboxyfluorescein solution, also at pH 7.4.
The compounds studied are weighed out (2.5 mg/ml) and are dissolved in a minimum amount of methanol. The solvent is evaporated off under reduced pressure in a rotary evaporator and the film thus obtained is dried with a stream of nitrogen. […]
The fluorescence measurements were carried out using a Jobin-Yvon spectrofluorimeter (spectrofluoromax 2), equipped with a 150 W xenon lamp. […] The samples were analyzed at an excitation wavelength of 480 nm, and an emission wavelength of 530 nm for 4 hours. […]
For each measurement, the initial fluorescence intensity (F0) is determined 30 seconds after the column filtration. The release is studied over a period of 4 h and the fluorescence intensity (Ft) is measured at regular intervals. The maximum fluorescence intensity (Fmax), which corresponds to 100% release, is obtained after tubular vesicle lysis obtained by the addition of Triton X100 (10% v/v). […]

[3] = Shape and size of tubular vesicles from transmission electron micrographs (negative staining, freeze-fracture)
Procedure: as §1
The freeze-fracture analyses confirmed the formation of these tubular vesicles and their morphological characteristics, namely the presence of an inner aqueous cavity isolated from the outside medium (FIG. 5).
The freeze-fracture analyses confirmed the formation of these tubular vesicles and their morphological characteristics, i.e. the presence of an inner aqueous cavity isolated from the outside medium.

[4] = Particle size by dynamic light diffraction / photon correlation spectroscopy (Malvern HPPS)
Procedure: as §1
The size and the mechanical stability over time of the particles obtained in the solution were measured after dynamic light diffraction filtration (High Performance Particle Sizer, Malvern). The nature of the particles obtained was studied by transmission electron microscopy after negative staining of the sample or after freeze-fracture. The critical aggregation concentration of these surfactants was determined by tensiometry or by spectrofluorimetry using the fluorescent label method. […] The phase transition temperature of these surfactants was determined by polarization spectrofluorimetry and by light scattering (FIG. 9).
The size distribution of the particles was measured by photon correlation spectroscopy of light of samples diluted in water using a Malvern HPPS/NIBS device equipped with a 3 mW He/Ne laser and a 288-channel correlator equipped with an avalanche of photodiodes. […]

[5] = Phase transition temperature by polarization spectrofluorimetry (DPH probe) and light scattering; conditions: polarization of fluorescent probe DPH
Procedure: as §2
With R=C17H35 (derivative A1). The phase transition temperature was measured via detection of the polarization of a fluorescent probe, DPH, by spectrofluorimetry: Tm=54° C.

Compound	change in particle size on storage ([1]; aqueous dispersion of tubular vesicles)	release kinetics of encapsulated carboxyfluorescein [2]	average cross section of the tubular vesicles [3] [nm]	average length of the tubular vesicles [3] [nm]	mean hydrodynamic diameter of the tubular vesicles ([4]; tubular vesicles from lipid dispersed in water at 2.5 mg.ml^-1, measured by light diffraction) [nm]	IP ([4]; tubular vesicles, light diffraction, printed with the mean hydrodynamic diameter)	phase transition temperature Tm [5] [°C]	mechanical stability of the liposomes formed in water ([1]; liposomes with conventional structures)
CCCCCCCCCCCCCCCCCNC(=O)OCC(CNC(=O)CCSCCC(=O)NC(CO)(CO)CO)OC(=O)NCCCCCCCCCCCCCCCCC (centres unmarked) [A1]	no change in particle size is observed after one year of storage	slower release kinetics	38	247	132	0.35	54	–
CCCCCCCCCCCCCCCCCC(=O)OCC(CNC(=O)CCSCCC(=O)NC(CO)(CO)CO)OC(=O)CCCCCCCCCCCCCCCCC (centres unmarked) [B, reference compound]	–	–	–	–	–	–	–	only a few hours

From patent US20070275046A1, “Noval Surfactants and Applications Thereof” (TS PHARMA, priority 2003, published 2007)
